The text below walks through data of patent publication US20240309049A1, “SYNTHETIC DNA BINDING DOMAIN PEPTIDES AND USES THEREOF” (The University of Chicago, priority 2016, published 2024).

Usually Kd stands for the concentration at which binding is half-saturated.

Positions of bridges follow the written chain, without caps; N, C: chain ends. Non-standard residues stand in square brackets, D forms with d. No end group written: not given here. S5 = C=CCCC[C@](C)(N)C(=O)O; βAla = NCCC(=O)O

This assay relates to E-box DNA (5′-CACGTG-3′). Kind of assay: Electrophoretic mobility shift assay (EMSA, gel shift) with fluorophore-labeled E-box oligonucleotide. The assay is classed as binding. Conditions: for E-box DNA binding in gel shift (in words): E-box probe. Here is the method:
FIG. 9 Representative electrophoretic mobility shift assay (EMSA, referred to as “Gel Shift) images of full length Myc/Max protein binding a fluorophore-labeled oligonucleotide containing an E-box binding site. Full-length Myc/Max binds in this assay with an affinity of ˜10 nM.
A fluorophore-labeled (5′-FAM) oligonucleotide containing a central E-box sequence was used (at 10 nM) to assess Myc/Max and DMD binding. This sequence was used in the Myc/Max/E-box crystal structure. […] The lower band is free E-box probe whereas the higher band is Myc/Max-bound E-box probe. Addition of excess non-labeled E-box probe (E1) competes this interaction. […] Thus, gel shift assays with the E-box probe are suitable for determining DMD (RTD) DNA-binding.
Representative gel shifts are shown for the Myc/Max heterodimer and members of the RTD2x, RTD8x and RTD7x series. Plotted are binding curves derived from the intensity of the free E-box probe (inhibition) and stable shifted band (binding).

For “913-MBS: RTD913 design with rigid meta-xylyl linker MBS (Ac-W[βAla]KRAHHNALER[2‑amino‑2‑methylhept‑6‑enoic acid]RRD[S5]IKDSK; staple 13-17; also: dimer via MBS (meta-xylyl) linker, attachment site not given here)”, the “E-box DNA binding in gel shift (in words)” value was “both tight and stable binding”. Moreover, the EC50 (E-box probe at 10 nM, read-out: EC50 for stable E-box binding / stable complex formation) was in the range of 50 to 100 nM. Also, for the setting “listed as MBS”, the “E-box DNA binding in gel shift (in words)” value is “more stable DNA complex formation”.
Regarding “AMAS: RTD913 sub-class dimer with short straight-chain AMAS linker (Ac-W[βAla]KRAHHNALER[2‑amino‑2‑methylhept‑6‑enoic acid]RRD[S5]IKDSK; staple 13-17; not fully specified (residue 22); also: dimer via AMAS linker, attachment site not given here)”, the “E-box DNA binding in gel shift (in words)” value is listed as “less stable complex formation”.
Turning to “EMCS: RTD913 sub-class dimer with long straight-chain EMCS linker (Ac-W[βAla]KRAHHNALER[2‑amino‑2‑methylhept‑6‑enoic acid]RRD[S5]IKDSK; staple 13-17; not fully specified (residue 22); also: dimer via EMCS linker, attachment site not given here)”, the “E-box DNA binding in gel shift (in words)” value is on record as “less stable complex formation”.
Consider “Myc/Max: full length recombinant Myc/Max protein heterodimer”, for which the “E-box DNA binding in gel shift (in words)” value is “specifically binds”. The Kd (E-box oligonucleotide, read-out: binding affinity (Kd) for E-box DNA) is about 10 nM.
